In the CheMixHub ionic liquid set:

Assay: xn = mol fraction of the nth substance listed

CCCCCC[n+]1ccn(C)c1.F[B-](F)(F)F + CC(C)O
101 kPa
Details	viscosity [mPa·s]
293.15 K, x2 = 0.9165	3.61
303.15 K, x2 = 0.1493	68.1
303.15 K, x2 = 0.3752	26.9
303.15 K, x2 = 0.5845	11.6
303.15 K, x2 = 0.7067	7.02
303.15 K, x2 = 0.762	5.47
313.15 K, x2 = 0.2992	24.9
313.15 K, x2 = 0.762	3.99
323.15 K, x2 = 0	50.3
323.15 K, x2 = 0.2289	21.4
323.15 K, x2 = 0.2992	18.8
333.15 K, x2 = 0	34
333.15 K, x2 = 0.1493	20.7
333.15 K, x2 = 0.3752	10.33
333.15 K, x2 = 0.762	2.35

COP(=O)([O-])OC.Cn1cc[n+](C)c1 + CS(C)=O
viscosity [mPa·s], 101 kPa
Details	298.15 K	313.15 K	333.15 K
x1 = 0.1773	7.7	4.8	3.1
x1 = 0.4972	42.7	22.6	11.9
x1 = 0.7978	134.7	59.6	26.7

CCn1cc[n+](C)c1.C[C@H](O)C(=O)[O-] + O
298.15 K, 100 kPa
Details	viscosity [mPa·s]
x2 = 0.3138	32.5
x2 = 0.9696	1.82

CC(=O)[O-].CCCC[N+](CCCC)(CCCC)CCCC + CCCCCCCCCCCCOS(=O)(=O)[O-].[Na+] + O
viscosity [mPa·s], 100 kPa
Details	x2 = 1.81e-06, x1 = 0.0001802	x2 = 3.61e-06, x1 = 0.0001802	x2 = 5.42e-06, x1 = 0.0001802	x2 = 7.23e-06, x1 = 0.0001802	x2 = 9.04e-06, x1 = 0.0001802	x2 = 1.084e-05, x1 = 0.0001802	x2 = 1.265e-05, x1 = 0.0001802	x2 = 1.446e-05, x1 = 0.0001802	x2 = 1.626e-05, x1 = 0.0001802	x2 = 1.807e-05, x1 = 0.0001802
293.15 K	0.997	1	1.004	1.004	1.006	1.007	1.007	1.008	1.008	1.008
298.15 K	0.89	0.893	0.894	0.894	0.898	0.901	0.902	0.903	0.904	0.904
303.15 K	0.756	0.758	0.76	0.763	0.764	0.765	0.766	0.768	0.768	0.769
308.15 K	0.679	0.68	0.681	0.683	0.684	0.684	0.686	0.687	0.688	0.688
313.15 K	0.605	0.606	0.606	0.608	0.609	0.609	0.611	0.612	0.612	0.613
318.15 K	0.569	0.572	0.572	0.574	0.575	0.575	0.577	0.578	0.578	0.579

CCCCCC[n+]1ccn(C)c1.F[B-](F)(F)F + NC(N)=O + O
298.15 K, 100 kPa
Details	viscosity [mPa·s]
x2 = 0, x1 = 0.0153	2.79
x2 = 0.008814, x3 = 0.9759	2.96
x2 = 0.01758, x3 = 0.9671	2.88
x2 = 0.02591, x3 = 0.9588	2.91
x2 = 0.03448, x3 = 0.9502	2.92
x2 = 0.04235, x3 = 0.9424	2.94

F[B-](F)(F)F.[Li+] + CC[n+]1ccn(C)c1.O=S(=O)([O-])C(F)(F)F
electrical conductivity [S/m], 101 kPa
Details	x1 = 0.007746	x1 = 0.01537	x2 = 0.9648	x2 = 0.9746
288.15 K	0.628	0.59	–	0.537
298.15 K	0.908	0.855	0.796	0.797
333.15 K	2.25	2.19	2.06	2.07

CC(C)C[C@H](N)C(=O)O + CCCCCCCCCCCC[N+](C)(C)Cc1ccccc1.[Cl-] + O
101 kPa, x1 = 0.00893, x2 = 0
Details	electrical conductivity [S/m]
293.15 K	0.00107
298.15 K	0.00125
303.15 K	0.00136
308.15 K	0.00152
313.15 K	0.00168
